The NIST ThermoML archive (doi:10.1021/je901020a)
“And” between values parts separate entries of the source, which are not always exact repeats. Equal entries are not always repeated.

Legend:
[1] = 101 kPa, Liquid; for speed of sound: Pulse-echo method
[2] = refractive index (Na D-line) (dimensionless); conditions: 101.33 kPa, Liquid, Standard Abbe refractometry
[3] = refractive index (Na D-line) (dimensionless); xn = mol fraction of the nth substance listed; conditions: 101 kPa, Liquid, Standard Abbe refractometry
[4] = xn = mol fraction of the nth substance listed; conditions: 101 kPa, Liquid; for speed of sound: Pulse-echo method

C1CCCCC1 [cyclohexane]
Conditions	mass density, [1]	refractive index, [2]	speed of sound, [1] [m/s]
298.15 K	773.9 kg/m3	1.4236	1255
313.15 K	759.6 kg/m3 and 759.59 kg/m3	1.41516	1182

Cc1ccccc1C [1,2-dimethylbenzene]
Conditions	mass density, [1] [kg/m3]	refractive index, [2]	speed of sound, [1]
298.15 K	875.4	1.50262	1350 m/s
313.15 K	862.9	1.49466	1290 m/s and 1289 m/s

Cc1ccc(C)cc1 [1,4-dimethylbenzene]
Conditions	mass density, [1] [kg/m3]	refractive index, [2]	speed of sound, [1] [m/s]
298.15 K	856.6	1.49312	1310
313.15 K	843.5	1.48444	1248

C1CCCC1 [cyclopentane]
Conditions	mass density, [1] [kg/m3]	refractive index, [2]	speed of sound, [1] [m/s]
298.15 K	740	1.40292	1204
313.15 K	725	1.39456	1130

CC1CCCCC1 [methylcyclohexane]
Conditions	mass density, [1]	refractive index, [2]	speed of sound, [1] [m/s]
298.15 K	765 kg/m3 and 765.1 kg/m3	1.42062	1215
313.15 K	751.9 kg/m3	1.41274 and 1.41274	1150

C1CCCCCCC1 [cyclooctane]
Conditions	mass density, [1] [kg/m3]	refractive index, [2]	speed of sound, [1]
298.15 K	831.5	1.45598	1391 m/s
313.15 K	819.2	1.44877	1326 m/s and 1325 m/s

Cc1cc(C)cc(C)c1 [1,3,5-trimethylbenzene]
Conditions	mass density, [1] [kg/m3]	refractive index, [2]	speed of sound, [1] [m/s]
298.15 K	861.1	1.49693	1336
313.15 K	848.8	1.48923	1277

Cc1cccc(C)c1 [1,3-dimethylbenzene]
Conditions	mass density, [1] [kg/m3]	refractive index, [2]	speed of sound, [1] [m/s]
298.15 K	859.8	1.49466	1321
313.15 K	846.9	1.48653	1259

Cc1cc(C)cc(C)c1 [1,3,5-trimethylbenzene] + CC1CCCCC1
Conditions	mass density, [4] [kg/m3]	refractive index, [3]	speed of sound, [4] [m/s]
298.15 K, x2 = 0	861.1	1.49693	1336
298.15 K, x2 = 0.0463	856.7	1.49346	1330
298.15 K, x2 = 0.0962	851.9	1.48973	1323
298.15 K, x2 = 0.197	842.2	1.48211	1310
298.15 K, x2 = 0.2868	833.5	1.47524	1298
298.15 K, x2 = 0.3963	822.8	1.46685	1283
298.15 K, x2 = 0.4972	813	1.45909	1271
298.15 K, x2 = 0.5956	803.4	1.45153	1259
298.15 K, x2 = 0.6974	793.6	1.44373	1247
298.15 K, x2 = 0.7932	784.3	1.43635	1236
298.15 K, x2 = 0.8942	774.8	1.42859	1226
298.15 K, x2 = 0.9497	769.6	1.42444	1220
313.15 K, x2 = 0	848.8	1.48923	1277
313.15 K, x2 = 0.0524	843.8	1.48547	1269
313.15 K, x2 = 0.1075	838.5	1.48144	1262
313.15 K, x2 = 0.2051	829.1	1.47418	1248
313.15 K, x2 = 0.314	818.5	1.466	1233
313.15 K, x2 = 0.4067	809.5	1.45892	1221
313.15 K, x2 = 0.5093	799.5	1.45103	1207
313.15 K, x2 = 0.6083	789.8	1.44335	1195
313.15 K, x2 = 0.7071	780.1	1.43558	1183
313.15 K, x2 = 0.8106	770.1	1.42752	1171
313.15 K, x2 = 0.9093	760.4	1.41983	1159
313.15 K, x2 = 0.9596	755.7	1.41588	1154
